Assays:
ALK5 kinase = target: T1, ALK5 kinase (Homo sapiens, UniProt P36897); assay: LanthaScreen Eu Kinase Binding Assay; details: Kinase Tracer 178, Eu-anti-GST Antibody, read-out: IC50 Enzyme
T1 sequence (P36897 34-503): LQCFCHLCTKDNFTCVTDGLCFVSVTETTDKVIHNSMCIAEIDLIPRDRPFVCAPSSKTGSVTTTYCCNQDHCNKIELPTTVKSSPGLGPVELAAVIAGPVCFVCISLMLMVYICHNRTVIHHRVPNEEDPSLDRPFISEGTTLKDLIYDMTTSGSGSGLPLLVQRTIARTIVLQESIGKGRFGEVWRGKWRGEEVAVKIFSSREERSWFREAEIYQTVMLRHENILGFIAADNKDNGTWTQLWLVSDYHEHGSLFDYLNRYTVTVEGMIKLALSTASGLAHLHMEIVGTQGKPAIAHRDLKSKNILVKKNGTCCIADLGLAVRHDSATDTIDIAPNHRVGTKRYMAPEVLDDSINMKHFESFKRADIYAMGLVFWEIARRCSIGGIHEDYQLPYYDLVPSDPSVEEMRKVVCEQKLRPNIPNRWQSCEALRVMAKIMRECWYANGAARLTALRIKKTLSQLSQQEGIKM
Method in brief: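 Compound (1% DMSO final) preincubated 30 min at RT with GST-tagged ALK5, then Eu-anti-GST antibody and Kinase Tracer 178 added for 60 min at RT. TR-FRET read at 340 nm excitation; 665/615 nm emission ratio falls as compound binding rises.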

TGF-β signaling = assay: Assay for evaluating cellular inhibition of TGF-β signaling, HEK293 (SBE reporter) luciferase reporter; type: cell-based; details: Homo sapiens; HEK293 (SBE reporter) stable cells, 0.5% FBS, 2 h pre-treatment, TGF-β1 2 ng/mL 24 h; read-out: IC50 HEK 293 Cell
Method: [Example 2] Assay for Evaluating Cellular Inhibition of TGF-β Signaling
4T1 (SBE-luc2P) transient pool that have SBE-luc2P (hygro) expression plasmid or HEK293 (SBE reporter) stable cells (BPS bioscience) were seeded at 6×10^3 cells/well or 2.5×10^4 cells/well in 96-well plate, respectively. 4T1 (SBE-luc2P) transient pool were pre-treated with novel compound synthesized in Example 1 above in 0.2% FBS at approximately 60% confluence at 37° C. in 5% CO2. Also, HEK293 (SBE reporter) stable cells were pre-treated with each test compounds of formula in 0.5% FBS at approximately 80% confluence at 37° C. in 5% CO2. After 2 hours, cells were treated with TGF-β1 (2 ng/mL) for 24 h at 37° C. in 5% CO2. Cell lysates were prepared using Luciferase Assay (Promega) according to the manufacturer's instruction, and luminescence was measured by a plate reader, Biotek Synergy H1 (Vermont, USA).

SMILES	IC50 (ALK5 kinase) [nM]	IC50 (TGF-β signaling) [nM]
Cc1cccc(-c2nc(C3CC3)sc2Oc2ccnc(Nc3cccc(S(N)(=O)=O)c3)c2)n1 [A-277, 3-((4-((2-Cyclopropyl-4-(6-methylpyridin-2-yl)thiazol-5-yl)oxy)pyridin-2-yl)amino)benzenesulfonamide]	< 100	< 100
Cc1cccc(-c2nc(C3CC3)sc2Oc2ccnc(Nc3cc(C(N)=O)ccn3)c2)n1 [A-276, 2-((4-((2-Cyclopropyl-4-(6-methylpyridin-2-yl)thiazol-5-yl)oxy)pyridin-2-yl)amino)isonicotinamide]	< 100	< 100
CCc1nc(-c2cccc(C)n2)c(Oc2ccnc(Nc3ccnc(C(N)=O)c3)c2)s1 [A-264, 4-((4-((2-Ethyl-4-(6-methylpyridin-2-yl)thiazol-5-yl)oxy)pyridin-2-yl)amino)picolinamide]	< 100	< 100
CNC(=O)c1ccnc(Nc2cc(Oc3sc(C4CC4)nc3-c3cccc(C)n3)ccn2)c1 [A-280, 2-((4-((2-Cyclopropyl-4-(6-methylpyridin-2-yl)thiazol-5-yl)oxy)pyridin-2-yl)amino)-N-methylisonicotinamide]	< 100	< 100

The next lines start with the values.

IC50 (ALK5 kinase) [nM]	IC50 (TGF-β signaling) [nM]	SMILES
< 100	< 100	O=C(O)c1ccc(Nc2cc(Oc3oc(C4CC4)nc3-c3ccccc3)ccn2)cc1 [A-295, 4-((4-((2-Cyclopropyl-4-phenyloxazol-5-yl)oxy)pyridin-2-yl)amino)benzoic acid]
< 100	< 100	Cc1cccc(-c2nc(C3CC3)sc2Oc2ccnc(Nc3cccc(C(N)=O)n3)c2)n1 [A-278, 6-((4-((2-Cyclopropyl-4-(6-methylpyridin-2-yl)thiazol-5-yl)oxy)pyridin-2-yl)amino)picolinamide]
< 100	< 100	CNC(=O)c1cccc(Nc2cc(Oc3sc(C4CC4)nc3-c3cccc(C)n3)ccn2)n1 [A-279, 6-((4-((2-Cyclopropyl-4-(6-methylpyridin-2-yl)thiazol-5-yl)oxy)pyridin-2-yl)amino)-N-methylpicolinamide]
< 100	< 100	CCc1nc(-c2cccc(C)n2)c(Oc2ccnc(Nc3ccc(C(=O)NCCN(C)C)cn3)c2)s1 [A-269, N-(2-(Dimethylamino)ethyl)-6-((4-((2-ethyl-4-(6-methylpyridin-2-yl)thiazol-5-yl)oxy)pyridin-2-yl)amino)nicotinamide]
